From patent publication US12508265B2, “Methods and compositions for reducing radiation induced toxicity” (Tosk, Inc., priority 2018, dated 2025)
Read-outs that look alike come from different tables or passages of the source.

Experiments:
[1] = tested on: surviving regenerating intestinal crypts; test: Small intestinal crypt survival in murine total-body irradiation (TBI) model of intestinal mucositis; assay type: in vivo, Mouse (Mus musculus) C57BL6; conditions: 12 Gy
From the text: The aim of the study whose results are provided in FIG. 2-6 was to determine the effect of TK-112690 on small intestinal crypt survival, in a murine total-body irradiation (TBI) model of intestinal mucositis.
• Animal Species: Mouse (Mus musculus) • Strain/substrain: C57BL6 (negative for Klebsiella oxytoca) • Source: Jackson Laboratories, MP-14, Bar Harbour, Me 04609, USA • Total animals: 40 males plus 5 spares • Body weight range: 18 to 25 g at start of treatment • Animal ages: 10 to 12 weeks at start of treatment • Housing: Animals were individually housed in rodent polycarbonated bins with bedding (irradiated Teklad sani chips) equipped with water bottles. Following group assignment, all cages were clearly labeled with a color-coded cage card indicating at least the study number and animal number. • Animal Identification: Each animal was individually identified using a permanent marker. • Group Animal Numbers: Each animal was given a four-number identification code. The first number corresponds to the respective dose group (1-4). The second number refers to whether the animal is the original animal, for instance the number 0, or a replacement, for instance 1, The third and fourth numbers identify the animal's rank within each group. • Room Environment: The animal room environment was set to maintain a temperature of 21±3° C., a relative humidity of 50±20%; and a light dark cycle of 12 hours light/12 hours dark, except during Study Plan-designated procedures. • Diet/Water: A standard certified commercial chow (Envigo Teklad Certified Irradiated Global Rodent Diet #2918C) was provided to the animals ad libitum except during designated procedures. Treats or fruits/vegetables were provided as part of the animal enrichment program. Concentrations of the contaminants (e.g., heavy metals, aflatoxin, organophosphate and chlorinated hydrocarbons) were routinely measured by the manufacturers. Acidified (pH between 2.75 and 3.25) municipal tap water (which had been exposed to ultraviolet light and purified by reverse osmosis) was provided to all animals ad libitum, except during designated procedures, via water bottles. Water bottles were changed at least every 3 days prior to irradiation and every 2 days after irradiation. Acidified water was changed every day after irradiation. During transportation and irradiation, animals were provided with food and water gel packs. Animals received water gel packs at least 2 days before transportation to acclimate to this type of hydration supplement and this procedure continued until necropsy. In addition, wetted food was provided to the animals on the bottom of the bins from Day 1 to the day of necropsy. • Acclimation: An acclimation period of at least 14 days was allowed between receipt of the animals and the start of dosing to accustom the animals to the laboratory environment. • Animal Assignment: During the acclimation period, animals were separately assigned to dose groups by a randomizing stratification system based on body weights. For logistical reasons, the animals were assigned to replicate subgroups, which may initiate dosing on different days.
The test item and reference item/vehicle are administered by intraperitoneal injection (ip) or oral gavage (po) 1.5 to 2 hour prior and 4 hours post irradiation and then twice daily (12 hours apart) for 4 consecutive days (Days 2 to 5), as shown below: […]

[2] = assay type: in vivo; conditions: TK-112690 60 mg/kg ip or 240 mg/kg po bid plus uridine 60 mg/kg vs PBS; 12 Gy; ip and po combined; p=0.012
From the text: • Animal Species: Mouse (Mus musculus) • Strain/substrain: C57BL6 (negative for Klebsiella oxytoca) • Source: Jackson Laboratories, MP-14, Bar Harbour, Me 04609, USA • Total animals: 40 males plus 5 spares • Body weight range: 18 to 25 g at start of treatment • Animal ages: 10 to 12 weeks at start of treatment • Housing: Animals were individually housed in rodent polycarbonated bins with bedding (irradiated Teklad sani chips) equipped with water bottles. Following group assignment, all cages were clearly labeled with a color-coded cage card indicating at least the study number and animal number. • Animal Identification: Each animal was individually identified using a permanent marker. • Group Animal Numbers: Each animal was given a four-number identification code. The first number corresponds to the respective dose group (1-4). […] Concentrations of the contaminants (e.g., heavy metals, aflatoxin, organophosphate and chlorinated hydrocarbons) were routinely measured by the manufacturers. […]
Mortality checks were recorded concomitantly with the cage-side observations (see below for clinical signs), during all phases of the study. […]

[3] = Plasma concentration profile over 8 hours in mice (LC/MS); assay type: in vivo, CD-1 Female Mice; conditions: mouse plasma; for half-life: female, CD-1, read-out: Elimination half-life (converted)
Protocol: FIG. 3 depicts a set of data expressing plasma concentration profile over 8 hours in mice administered either 60 mg/kg of TK-112690 ip or 240 mg/kg po by gavage. Plasma samples from 3 animals/timepoint were analyzed. CD-1 Female Mice (n=3) were dosed with either 60 (ip) or 240 (po) mg/kg TK-112690 in PBS. Blood samples were obtained at the designated timepoints, and the samples analyzed for drug using LC/MS.

Cc1cn2c(nc1=O)O[C@H]1[C@H](O)[C@@H](CO)O[C@H]12 [TK-112690]
number of surviving intestinal crypts in the jejunum, Z scores ([1]; TK-112690 60 mg/kg ip bid plus uridine 60 mg/kg vs PBS, p=0.029): ameliorates the mucosal damage in the jejunum | number of surviving intestinal crypts in the jejunum, Z scores ([1]; TK-112690 60 mg/kg ip or 240 mg/kg po bid (combined) plus uridine 60 mg/kg vs PBS, p=0.007): minimizes the mucosal damage in the jejunum | number of surviving intestinal crypts (jejunum, duodenum, ileum), Z scores ([1]; TK-112690 60 mg/kg ip or 240 mg/kg po bid plus uridine 60 mg/kg vs PBS, p=0.03): lessens the mucosal damage associated with radiation treatment | number of surviving intestinal crypts in the duodenum, Z scores ([1]; TK-112690 60 mg/kg ip or 240 mg/kg po bid plus uridine 60 mg/kg vs PBS, p=0.046): ameliorates the mucosal damage in the duodenum | number of surviving intestinal crypts in the jejunum, Z scores ([1]; TK-112690 240 mg/kg po bid plus uridine 60 mg/kg vs PBS, p=0.041): ameliorates the mucosal damage in the jejunum | difference in body weight between pre-treatment and day 6 (Z scores) [2]: modest, highly statistically significant (p=0.012) protection from weight loss | AUC0→Last ([3]; 60 mg/kg ip in PBS): Approximately 30 (micrograms/mL)*hour | AUC0→Last ([3]; 240 mg/kg po by gavage in PBS): ~40 (micrograms/mL)*hour | half-life ([3]; 60 mg/kg ip in PBS): ~2.5 h | half-life ([3]; 240 mg/kg po by gavage in PBS): ~2.5 h
